Test results as given in patent US5504098A, “Benzothiazolesulfonamide derivative, method for preparing the same, and use thereof” (Asahi Kasei Kogyo Kabushiki Kaisha, priority 1993, dated 1996).
Where a name gives a salt, the structure may show the parent alone.

Key:
[1] = tested on: tracheal specimens excised from guinea pigs (bronchial smooth muscle); experiment: Inhibitory effect on KCl-induced contraction of tracheal specimens excised from guinea pigs; set-up: species or system guinea pig; conditions: for Emax: Cavia porcellus, 20 mM KCl-induced contraction, maximum relaxation with 100 μM papaverine = 100%, 37 °C, 3 specimens, cumulative addition, read-out: Bronchial smooth muscle-relaxation ratio
From the text: According to a method in which tracheal specimens excised from guinea pigs were used (Takagi and Ozawa, "Yakubutsugaku Jikken (Experiments in Pharmacology)", p.100-102, 1960, published by Nanzando, Japan; and Fujiwara and Shibata, "Yakurigaku Kiso Jikenho (Methods of Fundamental Experiments in Pharmacology)" p.131-134, 1982, published by Kyourin, Japan), the relaxing effect of benzothiazolesulfonamide derivatives of the present invention (compounds 1 to 10) on bronchial smooth muscle was evaluated. From male guinea pigs weighing 350 to 500 g (Hartley strain, Kuroda Junkei Dobutsu), tracheas were excised and each of the excised tracheal specimens was hung in a 20 ml Magnus tube filled with Krebs-Henseleit solution containing 3 μM indomethacin under isometric conditions (initial load: 1.5 g). The solution temperature was kept at 37 ° C. in an atmosphere containing 95% O2 and 5% CO2. […] On the other hand, each of the compounds of the present invention was dissolved in distilled water or physiological saline and, after the KCl-induced contraction became stable, the compound solution was cumulatively added into the Magnus tube. The relaxing effect of each of the compounds of the present invention on contracted tracheal specimens was evaluated and a dose-response curve was obtained. After the evaluation of the relaxing effect, 100 μM of papaverine was individually added into the Magnus tubes, to thereby obtain a maximum relaxation value. Taking the obtained maximum relaxation value as 100%, the relaxation ratio was calculated with respect to each of thee compounds of the present invention. The number of specimens tested for each compound was 3. As a comparative compound, 1- 2-(6-benzothiazolesulfonylamino)ethyl!-4- 3-(phenoxy)propyl!piperazine […] disclosed in International Patent Application Publication No. WO92/14712 was used. (2) Results of the calculations

[2] = biological target: T1, Myosin light chain kinase (MLCK) (Gallus gallus, UniProt P11799); experiment: Measurement of the activity to inhibit Myosin light chain kinase (MLCK); assay type: biochemical; conditions: for Ki: ATP 20, 30, 50 and 100 μM, double reciprocal plotting, substrate MLC from chicken gizzard, read-out: MLCK inhibiting activity in terms of Ki value
T1 construct: MLCK was isolated and purified by the method according to Walsh et al; from tissue
T1 sequence (P11799 935-1906): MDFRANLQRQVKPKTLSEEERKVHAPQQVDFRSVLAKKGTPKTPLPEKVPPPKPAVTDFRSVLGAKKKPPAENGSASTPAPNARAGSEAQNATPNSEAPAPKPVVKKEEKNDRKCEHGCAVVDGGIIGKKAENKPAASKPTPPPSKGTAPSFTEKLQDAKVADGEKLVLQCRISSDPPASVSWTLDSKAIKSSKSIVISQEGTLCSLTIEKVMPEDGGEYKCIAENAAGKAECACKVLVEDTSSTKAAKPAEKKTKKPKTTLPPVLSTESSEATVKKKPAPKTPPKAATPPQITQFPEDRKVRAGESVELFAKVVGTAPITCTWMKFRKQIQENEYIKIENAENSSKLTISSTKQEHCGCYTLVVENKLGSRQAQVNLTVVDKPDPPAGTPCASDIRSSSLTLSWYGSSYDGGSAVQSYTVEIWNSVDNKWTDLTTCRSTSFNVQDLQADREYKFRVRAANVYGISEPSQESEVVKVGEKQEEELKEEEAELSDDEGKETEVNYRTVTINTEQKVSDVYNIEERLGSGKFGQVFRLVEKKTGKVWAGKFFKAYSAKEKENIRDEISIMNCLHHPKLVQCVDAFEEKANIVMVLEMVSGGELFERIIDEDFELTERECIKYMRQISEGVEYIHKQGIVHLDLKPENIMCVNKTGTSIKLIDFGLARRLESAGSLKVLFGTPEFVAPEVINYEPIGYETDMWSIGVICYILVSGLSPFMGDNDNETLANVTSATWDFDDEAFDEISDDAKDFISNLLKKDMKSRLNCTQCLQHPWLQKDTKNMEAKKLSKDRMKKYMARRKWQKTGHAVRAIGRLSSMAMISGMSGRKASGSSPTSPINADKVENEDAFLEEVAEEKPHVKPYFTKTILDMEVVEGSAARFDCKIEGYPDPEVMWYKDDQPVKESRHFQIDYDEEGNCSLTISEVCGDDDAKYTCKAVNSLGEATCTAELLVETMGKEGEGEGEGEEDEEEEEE
Procedure: Each of compounds 1 to 10 was used as an inhibitor for MLCK. As a comparative compound, 1- 2-(6-benzothiazolesulfonylamino)ethyl!-4- 3-(phenoxy)propyl!piperazine dihydrochloride disclosed in International Patent Application Publication No. WO92/14712 was used. Measurement of an MLCK inhibiting activity of each of compounds 1 to 10 was conducted utilizing the reaction system of MLCK and an antibody specific for phosphorylated myosine light chain (MLCP). MLC was isolated from a chicken gizzard and purified by the method according to Perry et al. (Journal of Biochemistry, vol. 211, p.267-272, 1983), to thereby obtain 20 kDa of purified MLC. On the other hand, MLCK was isolated and purified by the method according to Walsh et al. (Methods in Enzymology, vol. 99, p.279-288, 1983). Calmodulin was isolated from a pig brain and purified by the method according to Yazawa (Journal of Biochemistry, vol. 87, p.1313-1320, 1980). Further, anti-MLCP antibody was prepared by using, as an antigen, a synthetic peptide which has an amino acid sequence of an MLCP amino acid fragment of 12 amino acid residues containing a serine residue (phosphorylation site of MLCP). […] The synthetic peptide was subjected to phosphorylation by MLCK in the presence of ATP, followed by purification by high performance liquid chromatography. The purified peptide was conjugated with key hole limpet hemocyanin (KLH). The conjugation efficiency thereof was 110-148 nmol peptide/mg KLH. 0.2 mg of the KLH-conjugated peptide was mixed with an adjuvant and injected to a rabbit. The injection was conducted four more times, to thereby immunize the […]. An anti-MLCP antibody was obtained from the […], and the antibody titer thereof was examined. With respect to the anti-MLCP antibody having a satisfactorily high antibody titer, an IgG fraction (anti-MLCP IgG) was obtained and purified. Measurement of the MLCK activity was conducted as follows. MLC was diluted with a phosphate buffer (PBS) to obtain a solution having a MLC concentration of 5 μg/ml. 100 μl of the solution was added to each well of 96-well immunoplate, and was allowed to stand overnight at 4° C., to thereby immobilize the MLC on the surface of each well. Each plate was washed with PBS to thereby remove the MLC which had not been immobilized. To each of the MLC-immobilized wells was added a solution containing 25 mM Tris buffer (pH 7.5), 3 mM magnesium chloride, 1 mM calcium chloride, 0.1% of 2-mercaptoethanol, 1 mg/ml bovine serum albumin, 20 μg/ml calmoduline, 0.1 μg/ml MLCK, and 20 μM of ATP, thereby initiating the reaction. Substantially the same reaction as mentioned above was repeated three more times, except that the ATP concentration was changed to 30, 50 and 100 μM. 3 Minutes after the initiation of each of the reactions, 100 μl of an aqueous 20% phosphoric acid solution was added to each well of the individual plates to terminate the reaction. Each well was washed three times with PBS containing 0.2% of Triton X-100 (TrPBS). As a primary antibody, 100 μl of anti-MLCP antibody which had been diluted 500-fold with PBS containing 0.05% Tween 20 (TwPBS) was added to each of the washed wells, and allowed to stand at room temperature for 1 hour. Each well was washed with TrPBS three times. Then, as a secondary antibody, 100 μl of peroxydase-labeled anti-rabit IgG antibody (manufactured and sold by Cappel Co., Ltd., Germany) which had been diluted 1000-fold with TwPBS was added to each well, and allowed to stand at room temperature for 1 hour. Each well was washed with TrPBS three times. To each well was added 100 μ l of a coloring agent containing 2 mg/ml orthophenylenediamine and an aqueous 0.04% hydrogen peroxide solution. When the coloring proceeded satisfactorily, 30 μl of 4.5M sulfuric acid was added to each well to terminate the reaction. The absorbance of the reaction mixture in each well was determined using a microplate reader (manufactured and sold by Bio-Rad laboratories, U.S.A.). […]

[3] = biological target: protein kinase C (PKC); experiment: Measurement of the activity to inhibit protein kinase C (PKC); assay type: biochemical, rat; conditions: for Ki: ATP 1, 3, 5 and 10 μM, double reciprocal plotting, PKC from rat brain, read-out: PKC inhibiting activity in terms of Ki value
Procedure: Each of compounds 1 to 10 was used as an inhibitor for PKC. As a comparative compound, 1- 2-(6-benzothiazolesulfonylamino)ethyl!-4- 3-(phenoxy)propyl!piperazine dihydrochloride disclosed in International Patent Application Publication No. W092/14712 was used. Measurement of a PKC inhibiting activity of each of compounds 1 to 10 was conducted utilizing a kit for measuring PKC inhibiting activity (manufactured and sold by Medical and Biological Laboratories, Japan). PKC was isolated from a rat brain and purified by the method according to Inagaki et al. (Journal of Biochemistry, vol. 260, p.2922-2925, 1985). On the surface of each well of the 96-well plate of the measuring kit, a peptide which is a substrate for PKC was immobilized. To each of the wells was added a solution containing 25 mM Tris buffer (pH 7.5), 3 mM magnesium chloride, 1 mM calcium chloride, 0.1% 2-mercaptoethanol, 1 mg/ml bovine serum albumin, 50 μg/ml phosphatidylserine, 10 μg/ml PKC and 1 μM of ATP, thereby initiating the reaction. Substantially the same reaction as mentioned above was repeated three more times, except that the ATP concentration was changed to 3, 5 and 10 μM. 3 Minutes after the initiation of each of the reactions, 100 μl of an aqueous 20% phosphoric acid solution was added to each well of the individual plates to terminate the reaction. Each well was washed with TrPBS three times. 100 μl of the primary antibody included in the kit, which had been diluted 10-fold with TwPBS, was added to each of the washed wells, and allowed to stand at room temperature for 1 hour. Each well was washed with TrPBS three times. Then, as a secondary antibody, 100 μl of peroxydase-labeled anti-mouse IgG antibody (manufactured and sold by Bio-Rad laboratories, U.S.A.) which had been diluted 1000-fold with TwPBS was added to each well, and allowed to stand at room temperature for 1 hour. Each well was washed with TrPBS three times. To each well was added 100 μl of a coloring agent containing 2 mg/ml orthophenylenediamine and an aqueous 0.04% hydrogen peroxide solution. When the coloring proceeded satisfactorily, 30 μl of 4.5M sulfuric acid was added to each well to terminate the reaction. The absorbance of the reaction mixture in each well was determined using a microplate reader (manufactured and sold by Bio-Rad laboratories, u.s.a.). In order to measure the PKC inhibiting activity of each of compounds 1 to 10 and the comparative compound, each of the compounds having an appropriate concentration was individually added to the above-mentioned respective solutions having ATP concentrations of 1, 3, 5 and 10 μM and, then, the PKC activity was individually measured in terms of the absorbance in substantially the same manner as mentioned above. The PKC inhibiting activity in terms of inhibition constant (Ki) was individually obtained by double reciprocal plotting of the respective PKC activities obtained in the presence of each of compounds 1 to 10 and the comparative compound, and the respective PKC activities obtained in the absence of compounds 1 to 10 and the comparative compound.

[4] = tested on: bronchial smooth muscle; conditions: disclosed in WO92/14712; cited from earlier work

Ki [2] [µM] | Ki [3] [µM] | SMILES | Emax [1] [%] | ability to relax a bronchial smooth muscle of a tracheal specimen (in words) ([1]; KCl-induced contraction, conclusion from Table 2) | activity to inhibit myosin light chain kinase (in words) ([2]; conclusion from Table 1) | activity to inhibit protein kinase C (in words) ([3]; conclusion from Table 1) | ability to relax a bronchial smooth muscle by its antihistaminic activity [4]
120 | 35 | CNCCNS(=O)(=O)c1cccc2ncsc12 [Compound 5, 1-(7-benzothiazolesulfonyl)-4-methylethylenediamine hydrochloride] | 22 | – | – | – | –
90 | 15 | CC1CNCCN1S(=O)(=O)c1cccc2ncsc12 (stereo not shown) [Compound 3, 1-(7-benzothiazolesulfonyl)-2-methylpiperazine hydrochloride] | 21.1 | – | – | – | –
55 | 7 | O=S(=O)(NCCNCc1cccc(F)c1)c1cccc2ncsc12 [Compound 10, N-2-(3-fluorobenzylamino)ethyl!-7-benzothiazolesulfonamide hydrochloride] | 78 | – | – | – | –
75 | 5 | NCCNS(=O)(=O)c1cccc2ncsc12 [Compound 4, 1-(7-benzothiazolesulfonyl)ethylenediamine hydrochloride] | 33 | – | – | – | –
55 | 5 | O=S(=O)(NCCNCc1cccc(Cl)c1)c1cccc2ncsc12 [Compound 8, N-2-(3-chlorobenzylamino)ethyl!-7-benzothiazolesulfonamide hydrochloride] | 85.7 | – | – | – | –
50 | 5 | O=S(=O)(c1cccc2ncsc12)N1CCNCC1 [Compound 2, 1-(7-benzothiazolesulfonyl)piperazine hydrochloride] | 24 | – | – | – | –
50 | 6 | O=S(=O)(NCCNCc1ccc2c(c1)OCO2)c1cccc2ncsc12 [Compound 7, N-2-(3,4-methylenedioxybenzylamino)ethyl!-7-benzothiazolesulfonamide hydrochloride] | 96.8 | – | – | – | –
25 | 15 | O=S(=O)(c1ccc2ncsc2c1)N1CCNCC1 [Compound 6, 1-(6-benzothiazolesulfonyl)piperazine hydrochloride] | 27.2 | – | – | – | –
90 | 25 | CC(NCCNS(=O)(=O)c1cccc2ncsc12)c1cccc(Cl)c1 (stereo not shown) [Compound 9, N-{2-1-(3-chlorophenyl)ethyl!aminoethyl}-7-benzothiazolesulfonamide hydrochloride] | 74.6 | – | – | – | –
> 200 | > 200 | O=S(=O)(NCCN1CCN(CCCOc2ccccc2)CC1)c1ccc2ncsc2c1 [Comparative compound, 1-2-(6-benzothiazolesulfonylamino)ethyl!-4-3-(phenoxy)propyl!piperazine dihydrochloride, reference compound] | 6.8 | no ability to relax such a bronchial smooth muscle | no activity to inhibit the protein kinases | no activity to inhibit the protein kinases | –
– | – | O=S(=O)(NCCN1CCN(CCCOc2ccccc2)CC1)c1ccc2ncsc2c1 [1-2-(6-benzothiazolesulfonylamino)ethyl!-4-3-(phenoxy)propyl!piperazine] | – | – | – | – | has the ability to relax a bronchial smooth muscle by its antihistaminic activity
80 | 7 | O=S(=O)(c1cccc2ncsc12)N1CCCNCC1 [Compound 1, 1-(7-benzothiazolesulfonyl)homopiperazine hydrochloride] | 30.5 | – | – | – | –
